# Measured values as given in ChEMBL document CHEMBL4715921, “Novel Quinazolinyl Compounds as Endoribonuclease Inositol Requiring Enzyme 1 (IRE 1α) Inhibitors for Treating Cancer” (ACS Med Chem Lett, 2021).
# Experiment: Inhibition of His-tagged IRE1alpha D688N mutant KR domain (G547 to L997 reidues) (unknown origin) expressed in Sf9 insect cells measured after 1 hr by TR-FRET assay
# Parameters: species or system Homo sapiens
row,Compound,IC50 [nM]
1,O=S(=O)(Cc1ccccc1)Nc1c(F)cc(-c2ccc3nc(N[C@H]4CCCNC4)ncc3c2)cc1F,0.53
2,CCc1cc(-c2ccc(NS(=O)(=O)Cc3ccccc3)c(F)c2)cc2cnc(N[C@@H]3CNC[C@@H](F)C3)nc12,0.18
3,CCc1cc(-c2ccc(NS(=O)(=O)CCC(F)(F)F)c(F)c2)cc2cnc(N[C@H]3CC[C@H](N(C)C)CC3)nc12,0.25
4,O=S(=O)(Cc1ccccc1)Nc1ccc(-c2ccc3nc(N[C@H]4CCCNC4)ncc3c2)c(F)c1F,0.57
5,O=S(=O)(Cc1ccccc1)Nc1c(F)cc(-c2ccc3nc(N[C@@H]4CNC[C@@H](F)C4)ncc3c2)cc1F,0.51
6,CCc1cc(-c2ccc(NS(=O)(=O)Cc3ccccc3)cc2F)cc2cnc(N[C@@H]3CNC[C@@H](F)C3)nc12,0.46
